Data reported in ChEMBL document CHEMBL5303573, “Mapping human microbiome drug metabolism by gut bacteria and their genes” (Nature, 2019).

How the values were obtained:
[1] = The drug is tested on Collinsella intestinalis strain: DSM13280 for biotransformation. The drug concentrations were measured before and after a 12-h incubation by liquid-chromatography-coupled mass spectrometry (LC–MS); conditions: 2 µM
[2] = The drug is tested on Bacteroides coprophilus strain: DSM18228 for biotransformation. The drug concentrations were measured before and after a 12-h incubation by liquid-chromatography-coupled mass spectrometry (LC–MS); conditions: 2 µM
[3] = The drug is tested on Bacteroides finegoldii strain: DSM17565 for biotransformation. The drug concentrations were measured before and after a 12-h incubation by liquid-chromatography-coupled mass spectrometry (LC–MS); conditions: 2 µM
[4] = The drug is tested on Bacteroides fragilis strain: HMW610 for biotransformation. The drug concentrations were measured before and after a 12-h incubation by liquid-chromatography-coupled mass spectrometry (LC–MS); conditions: 2 µM
[5] = The drug is tested on Anaerococcus hydrogenalis strain: DSM7454 for biotransformation. The drug concentrations were measured before and after a 12-h incubation by liquid-chromatography-coupled mass spectrometry (LC–MS); conditions: 2 µM
[6] = The drug is tested on Blautia luti strain: DSM14534 for biotransformation. The drug concentrations were measured before and after a 12-h incubation by liquid-chromatography-coupled mass spectrometry (LC–MS); type: ADME; design: dose 2 uM, timepoint 0 vs 12 hours; conditions: 2 µM
[7] = The drug is tested on Clostridium asparagiforme strain: DSM15981 for biotransformation. The drug concentrations were measured before and after a 12-h incubation by liquid-chromatography-coupled mass spectrometry (LC–MS); type: ADME; design: dose 2 uM, timepoint 0 vs 12 hours; conditions: enterocloster asparagiformis, 2 µM
[8] = The drug is tested on Clostridium sporogenes strain: ATCC15579 for biotransformation. The drug concentrations were measured before and after a 12-h incubation by liquid-chromatography-coupled mass spectrometry (LC–MS); conditions: 2 µM
[9] = The drug is tested on Coprococcus comes strain: ATCC27758 for biotransformation. The drug concentrations were measured before and after a 12-h incubation by liquid-chromatography-coupled mass spectrometry (LC–MS); type: ADME; design: dose 2 uM, timepoint 0 vs 12 hours; conditions: 2 µM
[10] = The drug is tested on Dorea formicigenerans strain: ATCC27755 for biotransformation. The drug concentrations were measured before and after a 12-h incubation by liquid-chromatography-coupled mass spectrometry (LC–MS); conditions: 2 µM
[11] = The drug is tested on Eubacterium ventriosum strain: ATCC27560 for biotransformation. The drug concentrations were measured before and after a 12-h incubation by liquid-chromatography-coupled mass spectrometry (LC–MS); type: ADME; design: dose 2 uM, timepoint 0 vs 12 hours; conditions: 2 µM
[12] = The drug is tested on Ruminococcus gnavus strain: ATCC29149 for biotransformation. The drug concentrations were measured before and after a 12-h incubation by liquid-chromatography-coupled mass spectrometry (LC–MS); conditions: mediterraneibacter gnavus, 2 µM
[13] = The drug is tested on Subdoligranulum variabile strain: DSM15176 for biotransformation. The drug concentrations were measured before and after a 12-h incubation by liquid-chromatography-coupled mass spectrometry (LC–MS); conditions: 2 µM
[14] = bacteroides intestinalis, 12 h, 2 µM
Description: The drug is tested on Bacteroides intestinalis strain: DSM17393 for biotransformation. The drug concentrations were measured before and after a 12-h incubation by liquid-chromatography-coupled mass spectrometry (LC–MS)

[15] = bacteroides stercoris, 12 h, 2 µM
Description: The drug is tested on Bacteroides stercoris strain: ATCC43183 for biotransformation. The drug concentrations were measured before and after a 12-h incubation by liquid-chromatography-coupled mass spectrometry (LC–MS)

[16] = bacteroides thetaiotaomicron, 12 h, 2 µM
Description: The drug is tested on Bacteroides thetaiotaomicron strain: 7330 for biotransformation. The drug concentrations were measured before and after a 12-h incubation by liquid-chromatography-coupled mass spectrometry (LC–MS)

[17] = segatella copri, 12 h, 2 µM
Description: The drug is tested on Prevotella copri strain: DSM18205 for biotransformation. The drug concentrations were measured before and after a 12-h incubation by liquid-chromatography-coupled mass spectrometry (LC–MS)

[18] = limosilactobacillus reuteri cf48-3a, 12 h, 2 µM
Description: The drug is tested on Lactobacillus reuteri CF48-3A strain: BEI HM-102 for biotransformation. The drug concentrations were measured before and after a 12-h incubation by liquid-chromatography-coupled mass spectrometry (LC–MS)

[19] = roseburia intestinalis, 12 h, 2 µM
Description: The drug is tested on Roseburia intestinalis strain: L1-82 for biotransformation. The drug concentrations were measured before and after a 12-h incubation by liquid-chromatography-coupled mass spectrometry (LC–MS)

[20] = akkermansia muciniphila, 12 h, 2 µM
Description: The drug is tested on Akkermansia muciniphila strain: ATCC BAA-835 for biotransformation. The drug concentrations were measured before and after a 12-h incubation by liquid-chromatography-coupled mass spectrometry (LC–MS)

SMILES | Bacterial Biotransformation [1] | Bacterial Biotransformation [2] | Bacterial Biotransformation [3] | Bacterial Biotransformation [4] | Bacterial Biotransformation [5] | Bacterial Biotransformation [6] | Bacterial Biotransformation [7] | Bacterial Biotransformation [8] | Bacterial Biotransformation [9] | Bacterial Biotransformation [10] | Bacterial Biotransformation [11] | Bacterial Biotransformation [12] | Bacterial Biotransformation [13] | Bacterial Biotransformation [14] | Bacterial Biotransformation [15] | Bacterial Biotransformation [16] | Bacterial Biotransformation [17] | Bacterial Biotransformation [18] | Bacterial Biotransformation [19] | Bacterial Biotransformation [20]
COc1c(C)c2c(c(O)c1C/C=C(\C)CCC(=O)OCCN1CCOCC1)C(=O)OC2 [MYCOPHENOLATE MOFETIL] | Compound metabolized | Compound metabolized | Compound metabolized | Compound metabolized | Compound metabolized | Compound metabolized | Compound metabolized | Compound metabolized | Compound metabolized | Compound metabolized | Compound metabolized | Compound metabolized | Compound metabolized | Compound metabolized | Compound metabolized | Compound metabolized | Compound metabolized | Compound metabolized | Compound metabolized | Compound metabolized
CCOC(=O)C1=C(C)NC(C)=C(C(=O)OC)C1c1cccc([N+](=O)[O-])c1 (stereo not given) [NITRENDIPINE] | Compound metabolized | Compound NOT metabolized | Compound metabolized | Compound metabolized | Compound metabolized | Compound metabolized | Compound metabolized | Compound metabolized | Compound metabolized | Compound metabolized | Compound metabolized | Compound metabolized | Compound metabolized | Compound metabolized | Compound metabolized | Compound metabolized | Compound metabolized | Compound metabolized | Compound metabolized | Compound metabolized
CNC(=C[N+](=O)[O-])NCCSCc1csc(CN(C)C)n1 [NIZATIDINE] | Compound metabolized | Compound NOT metabolized | Compound metabolized | Compound metabolized | Compound metabolized | Compound metabolized | Compound metabolized | Compound NOT metabolized | Compound NOT metabolized | Compound metabolized | Compound metabolized | Compound metabolized | Compound metabolized | Compound metabolized | Compound NOT metabolized | Compound metabolized | Compound metabolized | Compound NOT metabolized | Compound NOT metabolized | Compound NOT metabolized
COc1ccc2[nH]c([S+]([O-])Cc3ncc(C)c(OC)c3C)nc2c1 (stereo not given) [OMEPRAZOLE] | Compound metabolized | Compound metabolized | Compound metabolized | Compound metabolized | Compound metabolized | Compound metabolized | Compound metabolized | Compound metabolized | Compound metabolized | Compound metabolized | Compound metabolized | Compound metabolized | Compound metabolized | Compound metabolized | Compound metabolized | Compound metabolized | Compound metabolized | Compound metabolized | Compound metabolized | Compound metabolized
COc1ccnc(C[S+]([O-])c2nc3ccc(OC(F)F)cc3[nH]2)c1OC (stereo not given) [PANTOPRAZOLE] | Compound metabolized | Compound metabolized | Compound metabolized | Compound metabolized | Compound metabolized | Compound metabolized | Compound metabolized | Compound metabolized | Compound metabolized | Compound metabolized | Compound metabolized | Compound metabolized | Compound metabolized | Compound metabolized | Compound metabolized | Compound metabolized | Compound metabolized | Compound metabolized | Compound metabolized | Compound metabolized
O=C(O)c1cc(/N=N/c2ccc(S(=O)(=O)Nc3ccccn3)cc2)ccc1O [SULFASALAZINE] | Compound metabolized | Compound NOT metabolized | Compound metabolized | Compound metabolized | Compound metabolized | Compound metabolized | Compound metabolized | Compound metabolized | Compound metabolized | Compound metabolized | Compound metabolized | Compound metabolized | Compound metabolized | Compound metabolized | Compound metabolized | Compound metabolized | Compound metabolized | Compound metabolized | Compound metabolized | Compound metabolized
COc1ccc2[nH]c([S+]([O-])Cc3ncc(C)c(OC)c3C)nc2n1 (stereo not given) [TENATOPRAZOLE] | Compound metabolized | Compound metabolized | Compound metabolized | Compound metabolized | Compound metabolized | Compound metabolized | Compound metabolized | Compound metabolized | Compound metabolized | Compound metabolized | Compound metabolized | Compound metabolized | Compound metabolized | Compound metabolized | Compound metabolized | Compound metabolized | Compound metabolized | Compound metabolized | Compound metabolized | Compound metabolized
CCS(=O)(=O)CCn1c([N+](=O)[O-])cnc1C [TINIDAZOLE] | Compound metabolized | Compound NOT metabolized | Compound metabolized | Compound metabolized | Compound metabolized | Compound metabolized | Compound metabolized | Compound metabolized | Compound metabolized | Compound metabolized | Compound metabolized | Compound metabolized | Compound metabolized | Compound metabolized | Compound metabolized | Compound metabolized | Compound metabolized | Compound NOT metabolized | Compound metabolized | Compound metabolized
